Laboratory results reported in ChEMBL document CHEMBL1201862, “PubChem BioAssay data set” (2004).
Calls of active or inactive are those of the source.

Assays:
Protein skinhead-1 = biological target: T1, Protein skinhead-1 (Caenorhabditis elegans, UniProt P34707); format: functional
T1 sequence (P34707 whole entry): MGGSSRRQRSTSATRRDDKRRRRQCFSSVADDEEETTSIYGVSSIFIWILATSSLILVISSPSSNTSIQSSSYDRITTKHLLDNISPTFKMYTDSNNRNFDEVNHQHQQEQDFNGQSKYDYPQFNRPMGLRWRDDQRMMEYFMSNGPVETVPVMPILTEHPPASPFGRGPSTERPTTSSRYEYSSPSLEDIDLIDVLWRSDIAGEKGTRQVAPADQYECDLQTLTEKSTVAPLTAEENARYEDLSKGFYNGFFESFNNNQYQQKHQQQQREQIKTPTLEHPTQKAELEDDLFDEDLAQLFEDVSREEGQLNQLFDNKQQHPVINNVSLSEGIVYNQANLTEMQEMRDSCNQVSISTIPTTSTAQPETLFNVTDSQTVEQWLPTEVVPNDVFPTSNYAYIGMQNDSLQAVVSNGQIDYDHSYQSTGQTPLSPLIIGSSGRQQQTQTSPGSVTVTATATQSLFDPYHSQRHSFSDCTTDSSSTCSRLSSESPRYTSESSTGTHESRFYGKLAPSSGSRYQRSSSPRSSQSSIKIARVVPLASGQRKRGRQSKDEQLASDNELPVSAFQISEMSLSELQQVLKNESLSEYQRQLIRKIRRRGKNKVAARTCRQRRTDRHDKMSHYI

[1] = biological target: T2, Sentrin-specific protease 7 (Homo sapiens, UniProt Q9BQF6); format: functional;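 further: Luminescence-based dose-response confirmation of ultra-high-throughput screening hits, measuring inhibition of SENP7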
T2 sequence (Q9BQF6 whole entry): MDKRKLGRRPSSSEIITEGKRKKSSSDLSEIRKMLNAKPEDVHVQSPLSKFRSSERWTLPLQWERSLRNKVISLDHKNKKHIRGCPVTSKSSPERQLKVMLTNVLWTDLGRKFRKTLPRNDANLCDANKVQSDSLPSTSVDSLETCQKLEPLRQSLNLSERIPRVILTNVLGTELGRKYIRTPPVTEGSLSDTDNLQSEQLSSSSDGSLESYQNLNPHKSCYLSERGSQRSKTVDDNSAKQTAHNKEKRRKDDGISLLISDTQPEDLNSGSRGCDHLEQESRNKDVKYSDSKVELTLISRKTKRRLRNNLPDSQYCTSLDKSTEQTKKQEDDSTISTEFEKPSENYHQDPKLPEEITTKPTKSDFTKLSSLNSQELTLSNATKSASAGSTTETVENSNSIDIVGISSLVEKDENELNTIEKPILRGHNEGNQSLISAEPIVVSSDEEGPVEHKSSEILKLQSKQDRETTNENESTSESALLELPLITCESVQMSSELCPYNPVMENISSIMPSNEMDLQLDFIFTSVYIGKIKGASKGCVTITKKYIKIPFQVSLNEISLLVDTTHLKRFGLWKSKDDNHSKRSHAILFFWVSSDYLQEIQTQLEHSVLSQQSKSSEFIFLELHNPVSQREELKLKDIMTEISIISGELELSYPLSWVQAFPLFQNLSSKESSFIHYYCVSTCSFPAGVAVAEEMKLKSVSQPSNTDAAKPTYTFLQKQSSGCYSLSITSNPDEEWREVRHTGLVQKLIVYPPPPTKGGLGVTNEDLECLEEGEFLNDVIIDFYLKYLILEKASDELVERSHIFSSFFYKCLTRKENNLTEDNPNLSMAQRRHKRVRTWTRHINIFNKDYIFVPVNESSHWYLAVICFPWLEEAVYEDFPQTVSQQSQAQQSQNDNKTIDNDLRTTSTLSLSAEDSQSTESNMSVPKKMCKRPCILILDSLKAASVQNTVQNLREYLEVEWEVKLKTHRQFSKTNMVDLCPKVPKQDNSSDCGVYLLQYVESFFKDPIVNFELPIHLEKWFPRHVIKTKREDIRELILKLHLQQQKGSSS

[2] = biological target: T3, Sentrin-specific protease 6 (Homo sapiens, UniProt Q9GZR1); format: functional;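 further: Luminescence-based dose-response confirmatory assay of SENP6 inhibition, following up an ultra-high-throughput screen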
T3 sequence (Q9GZR1 whole entry): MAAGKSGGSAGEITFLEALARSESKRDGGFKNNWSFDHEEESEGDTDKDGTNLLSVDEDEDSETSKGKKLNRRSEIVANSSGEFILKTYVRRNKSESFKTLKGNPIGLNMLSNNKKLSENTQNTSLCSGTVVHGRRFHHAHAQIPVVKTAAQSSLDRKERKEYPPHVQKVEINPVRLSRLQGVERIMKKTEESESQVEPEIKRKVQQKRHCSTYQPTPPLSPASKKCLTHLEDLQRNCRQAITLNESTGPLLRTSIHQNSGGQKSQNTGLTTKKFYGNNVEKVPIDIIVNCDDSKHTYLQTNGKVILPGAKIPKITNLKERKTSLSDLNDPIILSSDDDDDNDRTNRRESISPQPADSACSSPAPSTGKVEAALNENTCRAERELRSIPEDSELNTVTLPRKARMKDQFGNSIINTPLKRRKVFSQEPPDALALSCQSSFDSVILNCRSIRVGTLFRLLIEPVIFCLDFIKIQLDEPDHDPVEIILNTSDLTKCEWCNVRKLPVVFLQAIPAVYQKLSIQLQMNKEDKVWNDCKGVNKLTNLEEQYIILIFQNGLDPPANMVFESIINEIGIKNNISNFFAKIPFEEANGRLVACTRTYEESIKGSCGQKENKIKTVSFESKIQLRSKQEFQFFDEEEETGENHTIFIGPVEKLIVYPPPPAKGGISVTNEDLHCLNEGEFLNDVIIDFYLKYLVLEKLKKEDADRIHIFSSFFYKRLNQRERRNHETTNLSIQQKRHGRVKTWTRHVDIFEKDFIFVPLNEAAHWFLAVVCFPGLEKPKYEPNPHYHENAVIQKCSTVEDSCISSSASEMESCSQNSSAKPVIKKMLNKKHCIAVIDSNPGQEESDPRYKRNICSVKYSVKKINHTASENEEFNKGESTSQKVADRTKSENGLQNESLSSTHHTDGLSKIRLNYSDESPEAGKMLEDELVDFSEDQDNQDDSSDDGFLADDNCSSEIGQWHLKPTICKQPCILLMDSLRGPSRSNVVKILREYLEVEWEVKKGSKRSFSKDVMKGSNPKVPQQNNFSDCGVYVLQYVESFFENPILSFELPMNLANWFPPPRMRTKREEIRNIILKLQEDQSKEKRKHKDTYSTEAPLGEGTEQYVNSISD

Caspase-3 = biological target: T4, Caspase-3 (Homo sapiens, UniProt P42574); format: functional;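 further: Dose-response selectivity test against caspase-3 for candidate inhibitors of sentrin-specific proteases (SENPs)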
T4 sequence (P42574 whole entry): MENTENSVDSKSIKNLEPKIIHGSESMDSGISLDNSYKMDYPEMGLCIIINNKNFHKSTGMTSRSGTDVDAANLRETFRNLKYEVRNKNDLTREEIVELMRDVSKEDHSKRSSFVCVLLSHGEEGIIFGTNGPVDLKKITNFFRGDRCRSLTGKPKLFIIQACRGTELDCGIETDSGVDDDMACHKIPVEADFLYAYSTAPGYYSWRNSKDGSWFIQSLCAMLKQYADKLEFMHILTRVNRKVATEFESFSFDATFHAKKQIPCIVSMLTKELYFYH

[3] = biological target: T5, Sentrin-specific protease 8 (Homo sapiens, UniProt Q96LD8); format: functional;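 further: luminescence read-out of SENP8 inhibition, dose-response confirmation following an ultra-high-throughput screen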
T5 sequence (Q96LD8 whole entry): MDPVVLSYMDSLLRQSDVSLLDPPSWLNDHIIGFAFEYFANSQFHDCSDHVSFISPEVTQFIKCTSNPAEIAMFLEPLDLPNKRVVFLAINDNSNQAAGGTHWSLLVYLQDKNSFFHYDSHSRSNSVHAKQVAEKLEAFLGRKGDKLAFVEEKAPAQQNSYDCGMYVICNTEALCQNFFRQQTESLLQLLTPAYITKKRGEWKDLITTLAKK

[4] = biological target: Heat shock protein HSP 90-alpha (Homo sapiens, UniProt P07900); format: functional, organism-based
[5] = biological target: T6, Apoptotic protease-activating factor 1 (Homo sapiens, UniProt O14727); format: functional
T6 sequence (O14727 whole entry): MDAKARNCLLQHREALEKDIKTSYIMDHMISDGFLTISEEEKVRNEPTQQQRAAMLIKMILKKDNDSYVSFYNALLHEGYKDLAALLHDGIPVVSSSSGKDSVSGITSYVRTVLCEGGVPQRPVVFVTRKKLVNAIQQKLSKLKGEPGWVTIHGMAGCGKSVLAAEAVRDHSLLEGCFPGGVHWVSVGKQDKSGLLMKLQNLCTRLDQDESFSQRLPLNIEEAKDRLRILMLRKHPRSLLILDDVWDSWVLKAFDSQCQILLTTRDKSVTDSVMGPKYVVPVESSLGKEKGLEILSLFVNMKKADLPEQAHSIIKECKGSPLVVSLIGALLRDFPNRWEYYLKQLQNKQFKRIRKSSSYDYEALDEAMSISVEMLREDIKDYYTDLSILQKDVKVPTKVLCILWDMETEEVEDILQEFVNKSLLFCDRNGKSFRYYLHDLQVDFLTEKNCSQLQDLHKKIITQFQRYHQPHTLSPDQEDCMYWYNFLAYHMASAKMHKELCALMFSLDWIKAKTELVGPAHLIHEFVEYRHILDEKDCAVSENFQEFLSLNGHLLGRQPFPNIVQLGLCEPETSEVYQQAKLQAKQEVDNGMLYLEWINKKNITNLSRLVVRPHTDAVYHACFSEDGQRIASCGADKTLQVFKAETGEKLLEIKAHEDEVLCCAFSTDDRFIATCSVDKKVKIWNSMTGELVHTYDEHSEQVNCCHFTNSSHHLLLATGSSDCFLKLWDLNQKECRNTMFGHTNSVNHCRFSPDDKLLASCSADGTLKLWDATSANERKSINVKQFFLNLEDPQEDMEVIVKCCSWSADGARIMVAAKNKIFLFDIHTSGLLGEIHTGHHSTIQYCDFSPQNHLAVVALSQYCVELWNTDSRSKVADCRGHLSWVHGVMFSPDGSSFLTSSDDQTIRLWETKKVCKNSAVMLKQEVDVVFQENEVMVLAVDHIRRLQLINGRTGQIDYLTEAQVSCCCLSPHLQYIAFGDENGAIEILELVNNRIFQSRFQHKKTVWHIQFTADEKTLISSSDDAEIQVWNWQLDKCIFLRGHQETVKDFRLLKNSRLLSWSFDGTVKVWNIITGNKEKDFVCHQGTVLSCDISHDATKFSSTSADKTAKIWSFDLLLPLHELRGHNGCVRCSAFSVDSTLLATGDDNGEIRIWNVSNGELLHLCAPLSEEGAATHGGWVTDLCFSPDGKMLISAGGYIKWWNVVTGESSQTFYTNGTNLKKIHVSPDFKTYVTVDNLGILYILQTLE

H9c2 = assay: cells; format: functional, cell-based; details: Rattus norvegicus, H9c2, Myocardium;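 further: confirmatory concentration-response retest of ultra-high-throughput screening hits for modulation of myocardial damage; cell death induced by hydrogen peroxide oxidative stress; compound pretreatment for 60 min then peroxide exposure for 2 h; potency is for protecting the cells against peroxide damage rather than for killing them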
[6] = Luminescence Cell-Based Dose Response HTS to Identify Inhibitors of 5'UTR Stem-Loop Driven Prion Protein mRNA Translation in H4 Neuroglioblastoma Cells. [Related pubchem assays: 1827 (Project Summary), 1813 (Primary HTS)]; format: functional
[7] = cytotoxicity toward NIH3T3 fibroblasts, dose response, counter-screen, cell-based, ATP luminescence, mouse fibroblasts (AID 2010); format: functional;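 further: cells exposed to compound for about 90 hours before reading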
[8] = microbe, parasite or virus in culture; format: functional; details: Mycobacterium tuberculosis
INS1 = assay: beta cell apoptosis inhibitors, cytokine rescue, dose response, luminescence, retest (AID 449756); format: functional, cell-based; details: Rattus norvegicus;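 further: cell death triggered by IL-1 beta plus TNF-alpha plus IFN-gamma mixture; protective hits raise ATP signal compared with cytokine alone wells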
cells [9] = format: functional, cell-based
[10] = inhibitors of firefly luciferase expression or activity, dose response, H4 neuroglioma cells, luminescence (AID 1990); format: functional, cell-based
Vero = assay: cells; format: functional; details: Chlorocebus sabaeus
[11] = inhibitors of intracellular T. cruzi replication, confirmation, NIH3T3 host cells, beta-gal luminescence (AID 2044); format: functional, cell-based;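 further: intracellular parasites grown in NIH/3T3 mouse fibroblasts as host cells; luminescent beta-galactosidase reporter signal from transgenic T. cruzi replicating inside host cells; inhibitors lower the luminescence signal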
[12] = inhibitors of SNCA 5'UTR-driven reporter translation, confirmation, H4 neuroglioma cells, luminescence (AID 1988); format: functional, cell-based
cells [13] = format: functional, cell-based; remark: listed apart in the source

SMILES	IC50 [1]	IC50 [2]	IC50 (Caspase-3)	IC50 [3]	IC50 (H9c2)	further results
CCCOc1ccc(C(=O)Nc2ccc(Cl)cn2)cc1	3.22 µM (active)	16.1 µM (active)	7.83 µM (active)	9.81 µM (active)	–	IC50 (Protein skinhead-1): 100 µM (inactive)
O=C1/C(=C\c2ccc(O)c(O)c2)SC(=S)N1Cc1ccccc1	13 µM (active)	11.5 µM (active)	67.5 µM (active)	10.7 µM (active)	–	AC50 [4]: 3.11 µM (active)
CN(Cc1ccc(F)cc1)C(=O)CNC(=O)c1cccs1	–	–	–	–	–	IC50 [5]: > 100 µM (inactive)
O=C(NCCN1CCN(c2ccccc2F)CC1)c1cccn2c(=O)c3ccccc3nc12	–	–	–	–	> 79 µM (inactive)	–
O=C(c1cc(O)nc2ccccc12)N1CCN(S(=O)(=O)c2ccc3ccccc3c2)CC1	–	–	–	–	> 79 µM (inactive)	–
O=C(N/N=C(\c1ccccc1)c1ccccn1)c1ccccc1Cl	–	–	–	–	–	EC50 [6]: 4.49 µM (active); EC50 [7]: 5.45 µM (active); CC50 [8]: 5.75 µM (active); AC50 (INS1): 1.27 µM (active); EC50 (cells [9]): > 350 µM (not active); EC50 [10]: 2.03 µM (active); CC50 (Vero): 6.17 µM (active); EC50 [11]: 0.852 µM (active); EC50 [12]: 0.472 µM (active); EC50 (cells [13]): 12.1 µM (active)
COc1ccc(-c2cc3ccc(OC)cc3cn2)cc1	1.69 µM (active)	> 100 µM (inactive)	15.8 µM (active)	> 100 µM (inactive)	–	–
NC(=O)COc1ccc2oc(=O)cc(-c3cc4ccccc4o3)c2c1	–	–	–	–	> 79 µM (inactive)	–
